Here are results for 13 compounds from PubChem BioAssay AID180 (DTP/NCI, 2004).

The test system of the assay is BDF1 mice, Adenocarcinoma 755 s.c., tumor weight T/C. The assay can be described thus: NCI In Vivo Anticancer Drug Screen. Data for tumor model Adenocarcinoma 755 (subcutaneous) in B6D2F1 (BDF1) mice. To be noted: endpoint: mean tumor weight, higher = larger tumour. The essentials:
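Transplantable tumor implanted; mice dosed with compound or vehicle; survival or tumor size recorded; ratio of treated to vehicle control reported.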

Where [1] appears, read: dose: 30.0 mg/kg/injection, schedule: Q01DX011 (ip), vehicle: carboxymethylcellulose (CMC).
The mark [2] stands for this setting: dose: 60.0 mg/kg/injection, schedule: Q01DX011 (ip), vehicle: carboxymethylcellulose (CMC).
Where [3] appears, read: dose: 45.0 mg/kg/injection, schedule: Q01DX011 (ip), vehicle: carboxymethylcellulose (CMC).
The mark [4] stands for this setting: dose: 75.0 mg/kg/injection, schedule: Q01DX011 (ip), vehicle: methylcellulose (MC).
[5] abbreviates: dose: 20.0 mg/kg/injection, schedule: Q01DX011 (ip), vehicle: carboxymethylcellulose (CMC).
Setting [6] is: dose: 40.0 mg/kg/injection, schedule: Q01DX011 (ip), vehicle: carboxymethylcellulose (CMC).
The mark [7] stands for this setting: dose: 12.5 mg/kg/injection, schedule: Q01DX011 (ip), vehicle: methylcellulose (MC).
Setting [8] is: dose: 25.0 mg/kg/injection, schedule: Q01DX011 (ip), vehicle: methylcellulose (MC).

SMILES strings stand for the structures. Where “and” joins values, the source holds several entries; their conditions need not be identical. Identical values can stand only once. Starred links: 1 amine or outer side, 2 acyl side, 3 side chain; linkers in the order of their positions; H or OH if unused. Positions of bridges follow the written chain, without caps; N, C: chain ends. Non-standard residues stand in square brackets, D forms with d. Residues, ends and D or L forms follow the SMILES beside them. Chains are numbered I, II in the order given. Actinocin(9to1) = Cc1c2oc3c(C)ccc(C(=O)[*:1])c3nc-2c(C(=O)[*:2])c(N)c1=O; aThr = C[C@H](O)[C@H](N)C(=O)O; NMeV = CN[C@H](C(=O)O)C(C)C; Sar = CNCC(=O)O

For orientation: T/C means the ratio of treated to control.

As to `Cn1c(=O)c2c(nc(CN3CCOCC3)n2C)n(C)c1=O`, the T/C (dose: 30.0 mg/kg/injection, schedule: Q01DX011 (ip), vehicle: methylcellulose (MC)) is 122 % of control; the T/C (dose: 60.0 mg/kg/injection, schedule: Q01DX011 (ip), vehicle: methylcellulose (MC)) was 81 % of control; the T/C (dose: 120.0 mg/kg/injection, schedule: Q01DX011 (ip), vehicle: methylcellulose (MC)) was 80 % of control; the T/C (dose: 240.0 mg/kg/injection, schedule: Q01DX011 (ip), vehicle: methylcellulose (MC)) was 92 % of control.
On to `CSc1nc(Cl)cc2nc(Cl)cn12`, for which the T/C by setting is: under setting [1], 110 % of control; under setting [2], 111 % of control.
Regarding `CCOC(=O)C(Cc1ccc(N(CCCl)CCCl)cc1)NP1(=O)NCCCO1` (centres undefined), where the note is “dose: 36.0 mg/kg/injection, schedule: Q01DX011 (ip), vehicle: saline”, the T/C was 21 % of control.
On to `NC(N)=Nc1nc2ccccc2s1`, for which the T/C (dose: 6.25 mg/kg/injection, schedule: Q01DX011 (ip), vehicle: carboxymethylcellulose (CMC)) is 108 % of control; the T/C (dose: 6.25 mg/kg/injection, schedule: Q01DX011 (ip), vehicle: other) was 84 % of control; the T/C (dose: 6.25 mg/kg/injection, schedule: Q01DX011 (ip), vehicle: water) was 105 % of control; the T/C (dose: 12.5 mg/kg/injection, schedule: Q01DX011 (ip), vehicle: carboxymethylcellulose (CMC)) is 53 % of control; the T/C (dose: 25.0 mg/kg/injection, schedule: Q01DX011 (ip), vehicle: other) was 90 % of control; the T/C (dose: 25.0 mg/kg/injection, schedule: Q01DX011 (ip), vehicle: water) is 84 % of control. Besides, the T/C (dose: 50.0 mg/kg/injection, schedule: Q01DX011 (ip), vehicle: water) is 48 % of control.
Take `CCCCCCC(=O)NC1=C(N2CC2)C(=O)C(NC(=O)CCCCCC)=C(N2CC2)C1=O`: the T/C is, setting by setting: (dose: 11.25 mg/kg/injection, schedule: Q01DX011 (ip), vehicle: carboxymethylcellulose (CMC)) 48 % of control; under setting [3], 4 % of control.
`CC(c1ccccc1)c1nc2c([nH]1)c(=O)n(C)c(=O)n2C` (centres undefined): the T/C runs as follows: (dose: 40.0 mg/kg/injection, schedule: Q01DX011 (ip), vehicle: methylcellulose (MC)) 99 % of control; under setting [4], 86 % of control; (dose: 150.0 mg/kg/injection, schedule: Q01DX011 (ip), vehicle: methylcellulose (MC)) 72 % of control.
Consider `Cc1c2oc3c(C)ccc(C(=O)N[C@@H]4C(=O)N[C@H](C(C)C)C(=O)N5CCC[C@H]5C(=O)N(C)CC(=O)N(C)[C@@H](C(C)C)C(=O)O[C@H]4C)c3nc-2c(C(=O)N[C@@H]2C(=O)N[C@H](C(C)C)C(=O)N3CCC[C@H]3C(=O)N(C)CC(=O)N(C)[C@@H](C(C)C)C(=O)O[C@H]2C)c(N)c1=O` (I: [aThr][dV]P[Sar][NMeV] / II: [aThr][dV]P[Sar][NMeV]; ester I:1-I:C, II:1-II:C; linker I:N-II:N via Actinocin(9to1)), for which the T/C was 2 % of control (dose: 0.02 mg/kg/injection, schedule: Q01DX011 (ip), vehicle: saline); 9 % of control (dose: 0.03 mg/kg/injection, schedule: Q01DX011 (ip), vehicle: carboxymethylcellulose (CMC)); 105 % of control (dose: 0.04 mg/kg/injection, schedule: Q01DX011 (ip), vehicle: carboxymethylcellulose (CMC)); 39 % of control (dose: 0.08 mg/kg/injection, schedule: Q01DX011 (ip), vehicle: carboxymethylcellulose (CMC)); 101 % of control (dose: 12.0 micrograms/kg/injection, schedule: Q01DX011 (ip), vehicle: carboxymethylcellulose (CMC)); 82 % of control (dose: 15.0 micrograms/kg/injection, schedule: Q01DX011 (ip), vehicle: carboxymethylcellulose (CMC)). The T/C reads like this: (dose: 24.0 micrograms/kg/injection, schedule: Q01DX011 (ip), vehicle: carboxymethylcellulose (CMC)) 26 % of control and 43 % of control; (dose: 40.0 micrograms/kg/injection, schedule: Q01DX011 (ip), vehicle: carboxymethylcellulose (CMC)) 4 % of control and 13 % of control; (dose: 48.0 micrograms/kg/injection, schedule: Q01DX011 (ip), vehicle: carboxymethylcellulose (CMC)) 10 % of control and 11 % of control; (dose: 53.0 micrograms/kg/injection, schedule: Q01DX011 (ip), vehicle: carboxymethylcellulose (CMC)) 3 % of control and 4 % of control; (dose: 95.0 micrograms/kg/injection, schedule: Q01DX011 (ip), vehicle: carboxymethylcellulose (CMC)) 2 % of control.
As to `O=S(=O)(O)C(Nc1ccccc1)c1ccccc1` (centres undefined), the T/C by setting is: under setting [5], 119 % of control; under setting [6], 91 % of control; (dose: 80.0 mg/kg/injection, schedule: Q01DX011 (ip), vehicle: carboxymethylcellulose (CMC)) 70 % of control.
On to `Fc1ccc(CSc2ncnc3c2ncn3C2CCCO2)cc1` (centres undefined), for which the T/C runs as follows: (dose: 4.6 mg/kg/injection, schedule: Q01DX011 (ip), vehicle: methylcellulose (MC)) 53 % of control; (dose: 9.3 mg/kg/injection, schedule: Q01DX011 (ip), vehicle: methylcellulose (MC)) 45 % of control; (dose: 18.7 mg/kg/injection, schedule: Q01DX011 (ip), vehicle: methylcellulose (MC)) 10 % of control; (dose: 37.5 mg/kg/injection, schedule: Q01DX011 (ip), vehicle: methylcellulose (MC)) 1 % of control and 3 % of control.
In the case of `O=C1CN(/N=C\c2ccc([N+](=O)[O-])o2)C(=O)N1`, the T/C reads like this: (dose: 4.74 mg/kg/injection, schedule: Q01DX011 (ip), vehicle: carboxymethylcellulose (CMC)) 111 % of control; (dose: 8.03 mg/kg/injection, schedule: Q01DX011 (ip), vehicle: carboxymethylcellulose (CMC)) 96 % of control; (dose: 9.48 mg/kg/injection, schedule: Q01DX011 (ip), vehicle: carboxymethylcellulose (CMC)) 121 % of control; under setting [7], 83 % of control; (dose: 16.05 mg/kg/injection, schedule: Q01DX011 (ip), vehicle: carboxymethylcellulose (CMC)) 115 % of control; (dose: 18.95 mg/kg/injection, schedule: Q01DX011 (ip), vehicle: carboxymethylcellulose (CMC)) 94 % of control. The T/C is, setting by setting: under setting [8], 61 % of control; (dose: 25.68 mg/kg/injection, schedule: Q01DX011 (ip), vehicle: carboxymethylcellulose (CMC)) 68 % of control; (dose: 35.0 mg/kg/injection, schedule: Q01DX011 (ip), vehicle: carboxymethylcellulose (CMC)) 84 % of control; (dose: 37.9 mg/kg/injection, schedule: Q01DX011 (ip), vehicle: carboxymethylcellulose (CMC)) 80 % of control; (dose: 42.8 mg/kg/injection, schedule: Q01DX011 (ip), vehicle: carboxymethylcellulose (CMC)) 41 % of control; under setting [3], 64 % of control. Besides, the T/C was 75 % of control (dose: 50.0 mg/kg/injection, schedule: Q01DX011 (ip), vehicle: methylcellulose (MC)); 98 % of control (dose: 56.0 mg/kg/injection, schedule: Q01DX011 (ip), vehicle: carboxymethylcellulose (CMC)); 72 % of control (dose: 64.0 mg/kg/injection, schedule: Q01DX011 (ip), vehicle: carboxymethylcellulose (CMC)); 55 % of control under setting [4]; 89 % of control (dose: 100.0 mg/kg/injection, schedule: Q01DX011 (ip), vehicle: methylcellulose (MC)).
Take `CNS(=O)(=O)c1ncnc2nc[nH]c12`: the T/C by setting is: (dose: 3.1 mg/kg/injection, schedule: Q01DX011 (ip), vehicle: methylcellulose (MC)) 77 % of control; (dose: 6.2 mg/kg/injection, schedule: Q01DX011 (ip), vehicle: methylcellulose (MC)) 36 % of control; (dose: 8.0 mg/kg/injection, schedule: Q01DX011 (ip), vehicle: carboxymethylcellulose (CMC)) 51 % of control; (dose: 10.0 mg/kg/injection, schedule: Q01DX011 (ip), vehicle: carboxymethylcellulose (CMC)) 20 % of control; under setting [7], 44 % of control; (dose: 15.0 mg/kg/injection, schedule: Q01DX011 (ip), vehicle: carboxymethylcellulose (CMC)) 28 % of control. In addition, the T/C under setting [5] was 2 % of control, the T/C under setting [8] was 5 % of control, the T/C under setting [1] is 16 % of control and the T/C under setting [6] was 2 % of control.
For the compound `NS(=O)(=O)c1nc2nc[nH]c(=O)c2[nH]1`, the T/C under setting [1] was 113 % of control; the T/C under setting [2] is 163 % of control; the T/C (dose: 120.0 mg/kg/injection, schedule: Q01DX011 (ip), vehicle: carboxymethylcellulose (CMC)) was 104 % of control; the T/C (dose: 240.0 mg/kg/injection, schedule: Q01DX011 (ip), vehicle: carboxymethylcellulose (CMC)) was 113 % of control.
As to `CC[C@H](c1ccc(O)cc1)[C@@H](CC)c1ccc(O)cc1`, the T/C (dose: 55.0 mg/kg/injection, schedule: Q01DX011 (sc), vehicle: steriod suspending solution) was 44 % of control.
